This is an account of results in US8828724B2, “Method for preparing cells for engraftment” (Institut National de la Sante et de la Recherche Medicale …, priority 2007, dated 2014).

Peptide text beside a SMILES is read from it.

In data set [1] the test system is BM-MNC. In words: Apoptosis evaluation via observation of nuclear morphology. In kind it is cell-based, mouse. The conditions noted are these: 100 μM, pre-treated or continued presence, 5 days of culture, FIG. 13. As for the experimental part: BM-MNC were grown onto gelatin/vitronectin matrix for 5 days in EBM in the continued presence of TSP1 or the 4N1-1 and 4N1-2 peptides, or treated for the last 24 h only. […] Non adherent cells were eliminated and adherent cells fixed with PBS-PFA 4% followed by addition of DAPI (Di-aminidophenylindol, 0.01 mg/ml) that becomes fluorescent after integration between DNA bases. […] Experiments were repeated at least three times.
After observing increased BM-MNC adhesion following treatment with peptide 4N1-1, the inventors examined the extent of apoptosis triggered by peptide 4N1-1.

The subject of data set [2] is BM-MNC. In words: Apoptosis evaluation via quantification of intact DNA content. In kind it is cell-based. The conditions noted are these: 50 μM for 10 or 120 min, culture up to 24 hours, FIG. 29. As for the experimental part: BM-MNC were isolated and treated with 4N1-1 peptide for 10 or 120 min, washed with PBS and cultured in EBM onto gelatin/vitronectin matrix for up to 24 hours. Untreated fresh cells served as control for live cells. […] After treatment and culture, non adherent and adherent cells were harvested and analyzed separately, fixed with ice-cold ethanol 70% in PBS, and incubated for 45 min in PBS containing Triton X-100 (0.05%), propidium iodide (PI; 50 μg/ml) and RNase-A (100 μg/ml). PI becomes fluorescent after integration between DNA bases. […] Experiments were repeated three times.
The inventors examined the extent of apoptosis in BM-MNC treated with peptide 4N1-1 and 4N1-2, using a second method. BM-MNC were pre-treated with 4N1-1 or 4N1-2 (50 μM) for 10 or 120 min, and cultured in full EBM2 medium, with serum and growth factors for up to 24 hours, to allow potential apoptotic reactions to proceed (FIG. 29). […] After culture, adherent and non-adherent cells were harvested and analyzed separately.

In data set [3] the test system is BM-MNC. As to the kind of experiment: BM-MNC adhesion onto gelatin/vitronectin or fibrin gels for 30 min after pre-treatment. In kind it is cell-based, mouse. The conditions noted are these: 2 h pre-treatment. As for the experimental part: Tibias, femurs and humerus of C57BL/6 male mice were carefully dissected, bone marrow was extracted and dissociated, and bone marrow mononuclear cells (BM-MNC) were separated by differential centrifugation on Ficoll gradients (Histopaque-1083, Sigma), (2,000 r.p.m, 25 min). BM-MNC were then washed with PBS and pelleted (2,000 r.p.m, 10 min).
(§1) To evaluate the effects of TSP1 or peptides derived from its carboxyterminal sequence, 4N1-1 and 4N1-2, on cell adhesion onto gelatin/vitronectin, fibrin gels or activated SVEC monolayers, 2.10^6/ml BM-MNC or PBMC, or 10^6/ml HUCB-EPC were pretreated for 2 h at 37° C. in an incubator with 5% CO2, in the presence of TSP1 ([…]), or the 4N1-1 or 4N1-2 peptides (100 μM), or control BSA (1%), or with mouse monoclonal anti-human CD47 IgG1 B6H12 (40 μg/ml), or matched control isotype mouse IgG1 (40 μg/ml), before PBS washes and culture for the specified length of time. For adhesion experiments, supernatants were removed, adherent cells were gently washed with PBS. The number of adherent cells per high power field was counted in 3 to 5 fields per well using an inverted phase-contrast microscope at high magnification (×400).
(§2) Mouse BM-MNC and HUCB-EPC adhesion was evaluated in vitro. The effects of purified or recombinant platelet proteins, or peptide agonists of the CD47/IAP receptor was characterized. Two main approaches were used: • 1. Pre-incubation of the cells with platelet proteins for 2 h before measuring their adhesion on gelatin/vitronectin control matrix or fibrin gels for 30 min. • 2. Cell adhesion on gelatin/vitronectin control matrix or fibrin gels for 16 h in the presence of platelet proteins in solution.

The conditions of data set [4]: systemic injection of significant doses; cited from earlier work.
In another data set the test system is HUCB-EPC. In words: HUCB-EPC adhesion onto gelatin/vitronectin or fibrin gels for 15 min after pre-treatment. The class given is cell-based, Human. The conditions noted are these: 2 h pre-treatment, 15 min adhesion, FIG. 8. As for the experimental part: Human umbilical cord blood (30-50 ml) was collected in sterile tubes containing heparin (15 UI/ml, Sanofi) following standard protocols in agreement with Hôpital Lariboisiére and Inserm ethical guidelines. PBMC were isolated via Ficoll gradient centrifugation (Histopaque-1077, Dominique Dutscher). To eliminate mature endothelial cells, mononuclear cells were seeded (6.10^6 cells/ml) in culture dishes (100×20 mm) at 37° C. with 5% CO2 for 16 h. Adherent cells were eliminated. Non-adherent cells were cultured and differentiated into Human umbilical cord blood-derived endothelial progenitor cells (HUCB-EPC) in 6-well plates (10^7 cells/well) on collagen type 1 matrix (Coll1; 90 μg/ml, Sigma) in M199 growth medium (Gibco) complete with L-glutamine, HEPES buffer (25 mM; Eurobio), antibiotics and antimycotics (penicillin 10000 units/ml, streptomycin 10,000 μg/ml, fongizone 25 μg/ml) and 20% FCS (Dominique Dutscher), as well as 10 ng/ml VEGF (R&D Systems).
as §1

Data set [5] has as its system BM-MNC. In words: BM-MNC adhesion onto interleukin-1β-pre-activated murine endothelial monolayers. The class given is cell-based, mouse. The settings on record: 2 h pre-treatment; TSP1 10 μg/ml, 4N1-1 100 μM; 30 min adhesion, FIG. 9. As for the experimental part:
SV40-transformed mouse lymph node endothelial cells (SVEC from ATCC), were grown in Dulbecco's Modified Eagle Medium (DMEM) supplemented with 20% FCS in 24 well plaques until they reached full confluency (7 days). SVEC monolayers were activated with 5 nM murine interleukin-1β (Calbiochem) for 2 h prior to cell-cell adhesion experiments.
as §1
BM-MNC were pre-treated for 2 h with recombinant or purified human TSP1 (10 μg/ml), or with peptide 4N1-1 (100 μM), and measured their adhesion after 30 min onto interleukin-1β-pre-activated murine endothelial monolayers. […]

Data set [6] relates to BM-MNC. In words: Endothelial differentiation of BM-MNC (Dil-Ac-LDL / BS1-lectin double labelling). The settings on record: 2 h pre-treatment, 5 days culture, FIG. 12. In kind it is cell-based, mouse. As for the experimental part:
BM-MNC were cultured onto gelatin/vitronectin in EBM medium for 5 days. After eliminating non adherent cells, EPC were identified through double-labelling for two endothelial characteristics: incorporation of Dil-labelled acetylated low density lipoproteins (Dil-Ac-LDL; 1 μg/ml, BioHarbor Products; red fluorescence) and binding of FITC-labelled BS1-lectin (1 μg/ml, Sigma; green fluorescence). Double fluorescence allowed the microscopic identification and counting of EPC in 3 to 5 fields per well (400× magnification). Experiments were repeated at least three times, and results expressed as percentages of EPC.
Following the previous observation that TSP1 and peptide 4N1-1 stimulate BM-MNC adhesion in vitro, the inventors measured the endothelial differentiation of treated BM-MNC. BM-MNC were cultured for 5 days, following a 2 h pre-treatment with recombinant or purified TSP1, or with peptides 4N1-1, 4N1-2, or CSVTCG (a peptide derived from the TSP1 sequence). EPC-differentiated BM-MNC were identified by fluorescence microscopy after double-labelling for Dil-Ac-LDL incorporation and BS1 lectin binding.

The test system of data set [7] is BM-MNC. As to the kind of experiment: BM-MNC adhesion onto gelatin/vitronectin for 16 h with proteins in solution. In kind it is cell-based, mouse. The settings on record: 16 h in presence of 100 μg/ml, FIG. 3. As for the experimental part:
as §2
BM-MNC were incubated for 16 h on gelatin/vitronectin matrix in the presence of PPP, recombinant TSP1 (100 μg/ml), or peptide 4N1-1 (100 μM) before adhesion was quantified through direct cell counts by phase-contrast microscopy. As reported in FIG. 3, TSP1 stimulated adhesion by over three fold compared to the gelatin/vitronectin control (+206.8%, p<0.05).

The mark [8] stands for this setting: 30 min adhesion, gelatin/vitronectin, FIG. 26.
Setting [9] is: BM-MNC, 30 min adhesion, FIG. 1.

Regarding `CSCC[C@H](NC(=O)[C@@H](NC(=O)[C@@H](NC(=O)[C@H](Cc1ccc(O)cc1)NC(=O)[C@H](Cc1ccccc1)NC(=O)[C@@H](N)CCCNC(=N)N)C(C)C)C(C)C)C(=O)N[C@@H](Cc1c[nH]c2ccccc12)C(=O)N[C@@H](CCCCN)C(=O)O` [4N1-1], in the data set on BM-MNC [1], the “apoptosis compared to BSA” value is on record as “did not stimulate apoptosis significantly”.
Regarding `CSCC[C@H](NC(=O)[C@@H](NC(=O)[C@@H](NC(=O)[C@H](Cc1ccc(O)cc1)NC(=O)[C@H](Cc1ccccc1)NC(=O)[C@@H](N)CCCNC(=N)N)C(C)C)C(C)C)C(=O)O` [4N1-2, RFYVVM, reference compound] (H-RFYVVM-OH), the “apoptosis compared to staurosporine or control, adherent and non-adherent cells” value in the data set on BM-MNC [2] was “did not stimulate apoptosis significantly”. In addition, the “apoptosis compared to BSA” value in the data set on BM-MNC [1] is recorded as “did not stimulate apoptosis significantly”.
Take “CSVTCG (TSP-1 fragment) [reference compound]”: the “inhibition of adhesion compared with BSA” value in the data set with BM-MNC [3] (30 min adhesion, gelatin/vitronectin, FIG. 7) worked out at 21%.
Take “FIRGGMYEGKK (7NGG) [mutated 7N3, reference compound]”: the “modulation of BM-MNC adhesion compared with BSA” value (from here on “modulation … compared with BSA”) in the data set with BM-MNC [3] (setting [8]) was “no significant modulation”.
On the same count and under the same terms, the result for FIRVVMYEGKK (7N3 peptide) reads “stimulated BM-MNC adhesion significantly”.
For the compound KRFYVVMWKK (4N1K peptide), in data set [4], the gross coagulation parameters entry was “does not modulate gross coagulation parameters” and the lethality result is listed as “not lethal”.
Consider “RFYGGMWK (4NGG) [mutated 4N1-1, reference compound]”, for which the “modulation … compared with BSA” value in the data set on BM-MNC [3] (setting [8]) is reported as “no significant modulation”.
Take “TSP1: recombinant or purified Thrombospondin-1, not specified which at b144”: in the data set with BM-MNC [3] (setting [9]), the “stimulation of adhesion on fibrin compared with BSA” value is given as “+74.0%” and the “stimulation of adhesion onto gelatin/vitronectin compared with BSA” value is “+160.6%”.
Turning to “leptin: recombinant human leptin (Biovision)”, the “modulation … compared with BSA” value with BM-MNC [3] (SDF1 100 ng/ml, EphB2-Fc 3 μg/ml, EBM2 50%, leptin 100 ng/ml, gelatin/vitronectin 30 min, FIG. 27) is “moderate increase”.
For “purified TSP1: Human purified Thrombospondin-1 prepared at Inserm Unit U553”, in the data set with BM-MNC [3] (30 min adhesion, FIG. 7), the “stimulation of BM-MNC adhesion onto gelatin/vitronectin compared with BSA” value is recorded as “+143.8%”. In addition, in the data set with HUCB-EPC, the “stimulation of HUCB-EPC adhesion onto fibrin compared with BSA” value is “+33.3%” and the “stimulation of HUCB-EPC adhesion onto gelatin-vitronectin compared with BSA” value is “+52.5%”. The “stimulation of adhesion onto endothelial monolayers compared with BSA” value in the data set on BM-MNC [5] was “+40.5%”. Also, the “stimulation of endothelial differentiation vs BSA” value with BM-MNC [6] is “+28.9%”.
On to “recombinant TSP1: Human recombinant Thrombospondin-1 produced by EMP-Genetech”, for which the “stimulation of adhesion compared to the gelatin/vitronectin control” value in the data set on BM-MNC [7] is “+206.8%”. In the data set with BM-MNC [3] (30 min adhesion, FIG. 2), the “concentration at which maximal stimulation of adhesion was reached” value amounted to 20 µg/mL and the “concentration from which adhesion onto gelatin/vitronectin was stimulated significantly” value was no less than 5 µg/mL. In the data set on BM-MNC [3] (30 min adhesion, FIG. 7), the “stimulation of BM-MNC adhesion onto gelatin/vitronectin compared with BSA” value was “+65.6%”. Also, in the data set on BM-MNC [3] (at 20 μg/ml, FIG. 2), the “maximal stimulation of adhesion onto gelatin/vitronectin compared with BSA” value is given as “+179.3%”. In addition, in the data set on HUCB-EPC, the “stimulation of HUCB-EPC adhesion onto fibrin compared with BSA” value is “+37.6%” and the “stimulation of HUCB-EPC adhesion onto gelatin-vitronectin compared with BSA” value was “+106.3%”. Also, the “stimulation of adhesion onto endothelial monolayers compared with BSA” value with BM-MNC [5] is given as “+34.2%”. Also, the “stimulation of endothelial differentiation vs BSA” value in the data set with BM-MNC [6] is given as “+28.0%”.
